Biological target: T1, TRAP1 enzyme (Homo sapiens, UniProt Q12931)
T1 sequence (Q12931 60-704): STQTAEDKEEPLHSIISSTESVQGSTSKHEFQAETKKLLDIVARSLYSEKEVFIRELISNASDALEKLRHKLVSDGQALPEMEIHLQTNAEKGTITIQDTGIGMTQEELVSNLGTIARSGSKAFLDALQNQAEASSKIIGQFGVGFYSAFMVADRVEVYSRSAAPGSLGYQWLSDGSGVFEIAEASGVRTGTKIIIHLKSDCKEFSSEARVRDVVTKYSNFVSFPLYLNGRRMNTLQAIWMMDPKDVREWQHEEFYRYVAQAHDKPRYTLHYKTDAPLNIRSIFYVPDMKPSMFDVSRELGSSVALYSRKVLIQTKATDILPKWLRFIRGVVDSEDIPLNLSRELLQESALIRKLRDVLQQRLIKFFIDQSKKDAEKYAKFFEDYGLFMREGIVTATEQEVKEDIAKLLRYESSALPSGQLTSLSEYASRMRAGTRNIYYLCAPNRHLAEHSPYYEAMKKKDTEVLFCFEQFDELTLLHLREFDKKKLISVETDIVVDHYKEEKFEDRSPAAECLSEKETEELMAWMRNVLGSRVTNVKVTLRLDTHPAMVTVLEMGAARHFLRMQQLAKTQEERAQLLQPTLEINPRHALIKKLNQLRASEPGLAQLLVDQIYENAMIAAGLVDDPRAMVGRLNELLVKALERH
Assay: ADP Glo assay of TRAP1 ATPase activity
Type: biochemical
Conditions: for EC50: TRAP1 ATPase activation, 150 nM Trap1, 20 μM ATP, geometric mean, read-out: ADP GLO DRC: GeoMean EC50; for Emax: read-out: ADP GLO DRC: Mean Emax
Method in brief: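 150 nM TRAP1 preincubated with compound (0.79–100 μM) 30 min at 37° C in Pipes pH 7.5 buffer (0.05 mM MgCl2, 40 mM KCl), then 20 μM ATP added for 60 min at 37° C. ADP quantified by ADP-Glo luminescence against ATP/ADP standard curve. Emax and EC50 from sigmoidal fit.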

| Structure (SMILES) | EC50 [µM] | Emax [%] |
| --- | --- | --- |
| COc1ccc(NC(=O)c2ccncc2-c2ccccc2)cc1S(=O)(=O)Nc1c(C)cccc1C [Compound 1267] | 20 to 100 | 123 to 159 |
| Cc1nc2cccc(C(=O)Nc3ccc(F)c(S(=O)(=O)Nc4ccc(Cl)cc4)c3)c2s1 [Compound 1268] | 20 to 100 | 123 to 159 |
| COc1ccc(NC(=O)c2ncn(-c3ccccc3)n2)cc1S(=O)(=O)Nc1c(C)cccc1C [Compound 1270] | 10 to 20 | 200 to 300 |
| COc1ccc(NC(=O)c2cccc(-c3ccccn3)c2)cc1S(=O)(=O)Nc1c(C)cccc1C [Compound 1271] | < 10 | 160 to 199 |
| COc1ccc(NC(=O)c2ccc3ocnc3c2)cc1S(=O)(=O)Nc1c(C)cccc1C [Compound 1272] | 20 to 100 | 123 to 159 |
| COc1ccc(NC(=O)c2cc(Cl)ncc2C(F)(F)F)cc1S(=O)(=O)Nc1c(C)cccc1C [Compound 1274] | 20 to 100 | 123 to 159 |
| COc1ccc(NC(=O)c2c(-c3ccccc3)noc2C)cc1S(=O)(=O)Nc1c(C)cccc1C [Compound 1279] | < 10 | 200 to 300 |
| CCn1nc(C(C)C)cc1C(=O)Nc1ccc(F)c(S(=O)(=O)Nc2ccc(Cl)cc2)c1 [Compound 1282] | 20 to 100 | 123 to 159 |
| COc1ccc(NC(=O)c2cccc(-c3csc(C)n3)c2)cc1S(=O)(=O)Nc1c(C)cccc1C [Compound 1290] | < 10 | 160 to 199 |
| COc1ccc(NC(=O)c2coc(-c3ccccc3)n2)cc1S(=O)(=O)Nc1c(C)cccc1C [Compound 1301] | < 10 | 160 to 199 |
| COc1ccc(NC(=O)c2cnc3ccccc3c2)cc1S(=O)(=O)Nc1c(C)cccc1C [Compound 1330] | < 10 | 200 to 300 |
| CCc1ccc(NC(=O)c2cccc3ncn(C)c23)cc1S(=O)(=O)Nc1c(C)cccc1C [Compound 1353] | 10 to 20 | 160 to 199 |
| COc1ccc(NC(=O)c2cc3ccccc3[n+](C)c2)cc1S(=O)(=O)Nc1c(C)cccc1C [Compound 1356, 3-((3-(N-(2,6-dimethylphenyl)sulfamoyl)-4-methoxyphenyl)carbamoyl)-1-methylquinolin-1-ium] | 20 to 100 | 160 to 199 |
| COc1ccc(NC(=O)c2ccc3cn(C)nc3c2)cc1S(=O)(=O)Nc1c(C)cccc1C [Compound 1362] | 10 to 20 | 200 to 300 |
| COc1ccc(NC(=O)c2ccc3cnn(C)c3c2)cc1S(=O)(=O)Nc1c(C)cccc1C [Compound 1370] | 20 to 100 | > 300 |
| COc1ccc(NC(=O)c2cc3c(C)nn(C)c3s2)cc1S(=O)(=O)Nc1c(Cl)cccc1Cl [Compound 1375] | 10 to 20 | 160 to 199 |
| COc1ccc(NC(=O)c2ncc(-c3ccccc3)o2)cc1S(=O)(=O)Nc1c(C)ccc2ncccc12 [Compound 1605] | < 10 | 160 to 199 |
| COc1ccc(NC(=O)c2ncc(-c3ccccc3)o2)cc1S(=O)(=O)Nc1c(C)ccnc1OC [Compound 1666] | 10 to 20 | 123 to 159 |
| COc1ccc(NC(=O)c2ncc(-c3ccccc3)o2)cc1S(=O)(=O)Nc1sc2c(c1C#N)CCCC2 [Compound 1671] | 10 to 20 | 160 to 199 |
| COc1ccc(NC(=O)c2ncc(-c3ccccc3)o2)cc1S(=O)(=O)Nc1sc(C)c(C)c1C#N [Compound 1672] | 10 to 20 | 160 to 199 |
| COc1ccc(NC(=O)c2ncc(-c3ccccc3)o2)cc1S(=O)(=O)Nc1cccc(C(F)(F)F)n1 [Compound 1805] | 10 to 20 | 200 to 300 |
| COc1ccc(NC(=O)c2ncc(-c3ccccc3)o2)cc1S(=O)(=O)Nc1c(C(C)C)ccnc1C(C)C [Compound 1809] | < 10 | 160 to 199 |
| COc1ccc(NC(=O)c2csc3c2C2CCN3CC2)cc1S(=O)(=O)Nc1c(C)cccc1C [Compound 1945] | 10 to 20 | 160 to 199 |
| COc1ccc(NC(=O)c2cnc(-c3cccnc3OC)[nH]2)cc1S(=O)(=O)Nc1ccc(Cl)cc1 [Compound 1951] | < 10 | 160 to 199 |
| COc1ccc(NC(=O)c2cocn2)cc1S(=O)(=O)Nc1ccc(Cl)cc1 [Compound 1961] | 20 to 100 | 160 to 199 |
| COc1ccc(NC(=O)c2cnc(-c3c(OC)cccc3OC)[nH]2)cc1S(=O)(=O)Nc1ccc(Cl)cc1 [Compound 1969] | 10 to 20 | 200 to 300 |
| COc1ccc(NC(=O)c2csc(-c3ccccc3)n2)cc1S(=O)(=O)N(CC(O)CO)c1ccc(Cl)cc1 (stereo not shown) [Compound 2404] | < 10 | 123 to 159 |
| COc1ccc(NC(=O)c2csc(-c3cc(F)c(F)c(F)c3)n2)cc1S(=O)(=O)Nc1c(C)csc1C [Compound 2406] | < 10 | 123 to 159 |

The next lines start with the values.

| EC50 [µM] | Emax [%] | Structure (SMILES) |
| --- | --- | --- |
| 20 to 100 | 123 to 159 | COc1ccc(NC(=O)c2cccc(-n3cnnn3)c2)cc1S(=O)(=O)Nc1c(C)cccc1C [Compound 1259] |
| 20 to 100 | 123 to 159 | Cn1c(=O)n(C)c2cc(C(=O)Nc3ccc(F)c(S(=O)(=O)Nc4ccc(Cl)cc4)c3)ccc21 [Compound 1261] |
| < 10 | 200 to 300 | COc1ccc(NC(=O)c2cn(Cc3ccccc3)nn2)cc1S(=O)(=O)Nc1c(C)cccc1C [Compound 1265] |
| 10 to 20 | 160 to 199 | COc1ccc(NC(=O)c2ccc3sc(C)nc3c2)cc1S(=O)(=O)Nc1c(C)cccc1C [Compound 1269] |
| 20 to 100 | 123 to 159 | COc1ccc(NC(=O)c2ncccc2C(=O)c2ccccc2)cc1S(=O)(=O)Nc1c(C)cccc1C [Compound 1275] |
| 20 to 100 | 123 to 159 | CCN1CCN(c2ccc(C(=O)Nc3ccc(OC)c(S(=O)(=O)Nc4c(C)cccc4C)c3)cc2)CC1 [Compound 1283] |
| < 10 | 200 to 300 | COc1ccc(NC(=O)c2ccnc(-c3ccccc3)c2)cc1S(=O)(=O)Nc1c(C)cccc1C [Compound 1285] |
| 20 to 100 | 123 to 159 | CCc1cc(C(=O)Nc2ccc(F)c(S(=O)(=O)Nc3ccc(Cl)cc3)c2)cc(C)n1 [Compound 1286] |
| 20 to 100 | 123 to 159 | COc1ccc(NC(=O)c2cc3cnccc3s2)cc1S(=O)(=O)Nc1c(C)cccc1C [Compound 1287] |
| 20 to 100 | 160 to 199 | COc1ccc(NC(=O)c2c[nH]c3cnccc23)cc1S(=O)(=O)Nc1c(C)cccc1C [Compound 1288] |
| 10 to 20 | 200 to 300 | COc1ccc(NC(=O)c2cnn(-c3ccccc3)c2)cc1S(=O)(=O)Nc1c(C)cccc1C [Compound 1292] |
| < 10 | 160 to 199 | COc1ccc(NC(=O)c2c[nH]c(-c3c(F)cccc3F)n2)cc1S(=O)(=O)Nc1ccc(Br)cc1 [Compound 1328] |
| 20 to 100 | 123 to 159 | CCc1ccc(NC(=O)c2cnn(-c3ccc(Cl)cc3)c2C)cc1S(=O)(=O)Nc1ccc(Cl)cc1 [Compound 1335] |
| 20 to 100 | 200 to 300 | COc1ccc(NC(=O)c2ncc(-c3ccccc3)o2)cc1S(=O)(=O)Nc1c(C#N)cccc1C(F)(F)F [Compound 1343, N-(3-(N-(2-cyano-6-(trifluoromethyl)phenyl)sulfamoyl)-4-methoxyphenyl)-5-phenyloxazole-2-carboxamide] |
| < 10 | 160 to 199 | COc1ccc(NC(=O)c2cn(C)c3ncccc23)cc1S(=O)(=O)Nc1ccc(Cl)cc1 [Compound 1345] |
| 10 to 20 | 160 to 199 | COc1ccc(NC(=O)c2ncc(-c3ccccc3)o2)cc1S(=O)(=O)Nc1c(C)cccc1C#N [Compound 1357] |
| < 10 | 160 to 199 | COc1ccc(NC(=O)c2cnc(-c3ccsc3)[nH]2)cc1S(=O)(=O)Nc1ccc(Cl)cc1 [Compound 1482] |
| 20 to 100 | 123 to 159 | COc1ccc(NC(=O)c2ncc(-c3ccccc3)o2)cc1S(=O)(=O)Nc1c(C)cc(C)nc1C [Compound 1575] |
| 20 to 100 | 123 to 159 | COc1ccc(NC(=O)c2ncc(-c3ccccc3)o2)cc1S(=O)(=O)Nc1ccc(C)nc1F [Compound 1684] |
| < 10 | 160 to 199 | COc1ccc(NC(=O)c2ncc(-c3ccccc3)o2)cc1S(=O)(=O)Nc1c(C)csc1C [Compound 1693] |
| 20 to 100 | 123 to 159 | CCc1nccc(C)c1NS(=O)(=O)c1cc(NC(=O)c2ncc(-c3ccccc3)o2)ccc1OC [Compound 1697] |
| 20 to 100 | 160 to 199 | COc1ccc(NC(=O)c2ncc(-c3ccccc3)o2)cc1S(=O)(=O)Nc1cc2ccccc2nn1 [Compound 1825] |
| < 10 | 200 to 300 | COc1ccc(NC(=O)c2cnc(-c3cccs3)[nH]2)cc1S(=O)(=O)Nc1ccc(Cl)cc1 [Compound 1938] |
| 20 to 100 | 160 to 199 | COc1ccc(NC(=O)c2ccc(C)nc2OC)cc1S(=O)(=O)Nc1ccc(Cl)cc1 [Compound 1963] |
| < 10 | 200 to 300 | COc1ccc(NC(=O)c2cnc(-c3ccccc3C)[nH]2)cc1S(=O)(=O)Nc1ccc(Cl)cc1 [Compound 1971] |
